We go through 17 compounds from ChEMBL document CHEMBL3046050, “Synthesis of bioactive spiro-2-[3-(2-phenyl)-3H-indolyl]-1-aryl-3-phenylaziridines and SAR studies on their antimicrobial behavior” (Med Chem Res, 2009).

As usually defined, the LD50 is the dose expected to kill half of the subjects tested. The low end stands for a more toxic substance, the high end for a less toxic substance.

The subject of data set [1] is Escherichia coli. Description: Antimicrobial activity against Escherichia coli at 20 ug/ml after 24 hr by disk diffusion method. As to conditions: read-out: IZ. The data set is classed as functional. For orientation: A growth-free zone around the sample is the usual read-out of agar diffusion tests.
Data set [2] has as its system Bacillus subtilis. Description: Antimicrobial activity against Bacillus subtilis at 20 ug/ml after 24 hr by disk diffusion method. The class given is functional. As to conditions: read-out: IZ.
The test system of data set [3] is Bacillus subtilis. Description: Antimicrobial activity against Bacillus subtilis at 20 ug/ml after 24 hr by disk diffusion method relative to ampicillin. The data set is classed as functional.
Data set [4] has as its system Brevundimonas diminuta. In words: Antimicrobial activity against Brevundimonas diminuta at 20 ug/ml after 24 hr by disk diffusion method. The class given is functional. As to conditions: read-out: IZ.
Data set [5] has as its system Escherichia coli. Description: Antimicrobial activity against Escherichia coli at 20 ug/ml after 24 hr by disk diffusion method relative to ampicillin. The data set is classed as functional.
Data set [6] relates to Priestia megaterium. Description: Antimicrobial activity against Bacillus megaterium at 20 ug/ml after 24 hr by disk diffusion method. As to conditions: read-out: IZ. The data set is classed as functional.
Data set [7] deals with Priestia megaterium. Description: Antimicrobial activity against Bacillus megaterium at 20 ug/ml after 24 hr by disk diffusion method relative to ampicillin. The data set is classed as functional.
The test system of data set [8] is Brevundimonas diminuta. In words: Antimicrobial activity against Brevundimonas diminuta at 20 ug/ml after 24 hr by disk diffusion method relative to ampicillin. The data set is classed as functional.
Data set [9] in a line: Acute toxicity in Rattus norvegicus (rat). As to conditions: in vivo. The data set is classed as organism-based.

With `Oc1ccc(N2C(c3ccccc3)C23C(c2ccccc2)=Nc2ccccc23)cc1` (stereo not drawn), the zone of inhibition at 20 µg/mL in [1] was determined as 6 mm; in data set [2] it was 5.5 mm; in [4], 7.7 mm; in data set [6], 5.5 mm. Also, the Ratio is 59.1 in [3], 57.1 in data set [5], 46.6 in [7] and 85.2 in data set [8]. In [9], this compound registered an LD50 of 4480 mg/kg.

Regarding `Clc1cccc(N2C(c3ccccc3)C23C(c2ccccc2)=Nc2ccccc23)c1` (stereo not drawn), the zone of inhibition at 20 µg/mL stood at 15.8 mm in data set [1], 15.5 mm in data set [2], 18.7 mm in data set [4] and 14.3 mm in data set [6]. Moreover, the Ratio is listed as 166.7 in data set [3], 150.8 in data set [5], 121.5 in [7] and 207.4 in [8]. Also, in data set [9], the LD50 came to 4380 mg/kg.

Regarding `O=C(O)c1ccccc1N1C(c2ccccc2)C12C(c1ccccc1)=Nc1ccccc12` (stereo not drawn), the zone of inhibition at 20 µg/mL turned out to be 4.2 mm in data set [1], 3.3 mm in [2], 5.8 mm in data set [4] and 4.3 mm in [6]. Further, the Ratio was found to be 35.8 in [3], 39.7 in data set [5], 36.7 in [7] and 64.8 in data set [8]. For the same compound, the LD50 in [9] is 3840 mg/kg.

On to `c1ccc(C2=Nc3ccccc3C23C(c2ccccc2)N3c2ccccc2)cc1` (stereo not drawn), for which the zone of inhibition at 20 µg/mL came out at 9.5 mm in data set [1], 10.2 mm in data set [2], 13.3 mm in [4] and 9.8 mm in data set [6]. For the same compound, the Ratio in data set [3] amounted to 109.3; in data set [5] it was 90.5; in data set [7], 83.3; in [8] it was 148.1. The same compound showed an LD50 in [9] of 4240 mg/kg.

Turning to `Oc1cccc(N2C(c3ccccc3)C23C(c2ccccc2)=Nc2ccccc23)c1` (stereo not drawn), the zone of inhibition at 20 µg/mL in data set [1] came to 10.5 mm; in data set [2], 11.5 mm; in data set [4], 15.7 mm; in data set [6], 10.5 mm. The Ratio in [3] is on record as 123.7; in data set [5] it was 100; in data set [7], 89; in data set [8], 174.1. The compound further yielded an LD50 in [9] of 5080 mg/kg.

As to `CCOc1ccccc1N1C(c2ccccc2)C12C(c1ccccc1)=Nc1ccccc12` (stereo not drawn), the zone of inhibition at 20 µg/mL in data set [1] is 25 mm; in data set [2], 25.7 mm; in [4] it was 27.3 mm; in data set [6], 22.2 mm. Further, the Ratio in data set [3] came to 276; in [5], 238.1; in data set [7], 187.9; in data set [8], 303.7. Also, the LD50 in [9] amounted to 4820 mg/kg.

In the case of `COc1ccccc1N1C(c2ccccc2)C12C(c1ccccc1)=Nc1ccccc12` (stereo not drawn), the zone of inhibition at 20 µg/mL in data set [1] was determined as 21.2 mm; in data set [2], 23 mm; in data set [4], 24 mm; in [6] it was 18.7 mm. The Ratio in data set [3] came out at 247.3; in [5], 201.6; in data set [7], 158.2; in data set [8] it was 266.7. In data set [9], this compound gave a 50% lethal dose (LD50) of 5150 mg/kg.

`Oc1ccccc1N1C(c2ccccc2)C12C(c1ccccc1)=Nc1ccccc12` (stereo not drawn): the zone of inhibition at 20 µg/mL in [1] came out at 11.3 mm; in data set [2], 12.7 mm; in [4], 17 mm; in [6], 12.7 mm. Besides, the Ratio in data set [3] came out at 136.2; in data set [5], 107.9; in [7] it was 107.3; in [8], 188.9. This compound showed a 50% lethal dose (LD50) in data set [9] of 4360 mg/kg.

On to `O=[N+]([O-])c1ccccc1N1C(c2ccccc2)C12C(c1ccccc1)=Nc1ccccc12` (stereo not drawn), for which the zone of inhibition at 20 µg/mL in data set [1] amounted to 18.3 mm; in data set [2] it was 19.3 mm; in [4], 22 mm; in data set [6], 17.8 mm. Further, the Ratio in data set [3] amounted to 207.9; in [5], 174.6; in data set [7], 151.1; in [8] it was 244.4. Besides, the median lethal dose (LD50) in [9] was 3560 mg/kg.

For the compound `Clc1ccc(N2C(c3ccccc3)C23C(c2ccccc2)=Nc2ccccc23)cc1` (stereo not drawn), the zone of inhibition at 20 µg/mL was found to be 7.7 mm in data set [1], 7.3 mm in data set [2], 10.7 mm in [4] and 6.8 mm in data set [6]. Moreover, the Ratio is given as 78.6 in [3], 73 in data set [5], 57.9 in data set [7] and 118.5 in data set [8]. Besides, in data set [9], the median lethal dose (LD50) came out at 4240 mg/kg.

Turning to `COc1cccc(N2C(c3ccccc3)C23C(c2ccccc2)=Nc2ccccc23)c1` (stereo not drawn), the zone of inhibition at 20 µg/mL in [1] stood at 20.8 mm; in [2] it was 21.5 mm; in data set [4], 22.8 mm; in data set [6], 17.7 mm. Further, the Ratio in data set [3] was determined as 231.2; in data set [5] it was 198.4; in [7], 149.7; in [8] it was 253.7. Besides, the median lethal dose (LD50) in data set [9] worked out at 5120 mg/kg.

Turning to `O=[N+]([O-])c1cccc(N2C(c3ccccc3)C23C(c2ccccc2)=Nc2ccccc23)c1` (stereo not drawn), the zone of inhibition at 20 µg/mL was 17.7 mm in [1], 17.2 mm in [2], 20.7 mm in [4] and 16.8 mm in data set [6]. In addition, the Ratio turned out to be 184.6 in data set [3], 168.3 in [5], 142.7 in [7] and 229.6 in data set [8]. This compound also gave a 50% lethal dose (LD50) in data set [9] of 4500 mg/kg.

For `Cc1cccc(N2C(c3ccccc3)C23C(c2ccccc2)=Nc2ccccc23)c1` (stereo not drawn), the zone of inhibition at 20 µg/mL was 13.5 mm in data set [1], 14.5 mm in data set [2], 17.3 mm in [4] and 13.5 mm in [6]. For the same compound, the Ratio in data set [3] was 155.9; in data set [5] it was 128.6; in [7], 114.4; in data set [8], 192.6. In addition, the median lethal dose (LD50) in [9] came to 3840 mg/kg.

In the case of `CC1(C)S[C@@H]2[C@H](NC(=O)[C@H](N)c3ccccc3)C(=O)N2[C@H]1C(=O)O` [AMPICILLIN], the zone of inhibition at 20 µg/mL in data set [1] was 10.5 mm; in data set [2], 9.3 mm; in data set [4], 9 mm; in data set [6], 11.8 mm.

Turning to `O=[N+]([O-])c1ccc(N2C(c3ccccc3)C23C(c2ccccc2)=Nc2ccccc23)cc1` (stereo not drawn), the zone of inhibition at 20 µg/mL turned out to be 8.8 mm in data set [1], 8.3 mm in data set [2], 11.5 mm in [4] and 8.7 mm in data set [6]. Further, the Ratio in [3] is 89.6; in data set [5], 84.1; in [7], 73.4; in [8], 127.8. In addition, the LD50 in [9] was 5380 mg/kg.

Regarding `CCOc1cccc(N2C(c3ccccc3)C23C(c2ccccc2)=Nc2ccccc23)c1` (stereo not drawn), the zone of inhibition at 20 µg/mL in data set [1] was 24.3 mm; in data set [2], 24.5 mm; in data set [4], 26 mm; in data set [6], 20.8 mm. In addition, the Ratio is 263.4 in data set [3], 231.7 in [5], 176.6 in data set [7] and 288.9 in data set [8]. In addition, the LD50 in data set [9] amounted to 4640 mg/kg.

On to `Clc1ccccc1N1C(c2ccccc2)C12C(c1ccccc1)=Nc1ccccc12` (stereo not drawn), for which the zone of inhibition at 20 µg/mL in data set [1] amounted to 17 mm; in [2], 16.3 mm; in [4], 20 mm; in data set [6], 15.5 mm. Also, the Ratio in data set [3] is recorded as 175.6; in data set [5], 161.9; in data set [7], 131.4; in data set [8], 222.2. Moreover, in data set [9], the 50% lethal dose (LD50) stood at 4040 mg/kg.
